The EC50 is the midpoint of the concentration-response curve.

What all share (assay type): cell-based
In assay [1] the test system is HCV GT1b (transient). The assay is described as follows: HCV GT1b (transient) replicon. To be noted: Hepatitis C virus, wild type, geometric mean. From the text:
(§1) The compound of Example 2 was further evaluated to assess the antiviral activity against genotypes 1-6 of HCV, both wild type and a number of clinically relevant mutant strains. The result of the evaluation together with the average EC50 of a genotypes and the corresponding values for compound 40ii of WO2014/058801 are summarised in Tables 2 and 3.
(A replicon is a self-replicating genome or part of one, used to study replication in cells.)

The subject of assay [2] is HCV GT3a NS5B in con1 background. The assay is described as follows: HCV GT3a chimeric replicon. Particulars: Hepatitis C virus.
Source text: as §1

Assay [3] concerns HCV GT1b (stable). Description: HCV GT1b (stable) replicon. Particulars: Hepatitis C virus, wild type, geometric mean.
Source text: as §1

For assay [4], the system named is HCV GT2a virus. The assay is described as follows: HCV GT2a virus. To be noted: Hepatitis C virus, wild type, geometric mean.
Source text: as §1

The subject of assay [5] is HCV GT6a NS5B in con1 background. Description: HCV GT6a chimeric replicon. Particulars: Hepatitis C virus.
Source text: as §1

For assay [6], the system named is HCV GT4a NS5B in con1 background. Description: HCV GT4a chimeric replicon. Particulars: Hepatitis C virus.
Source text: as §1

In assay [7] the test system is HCV GT1b S282T. The assay is described as follows: HCV GT1b S282T mutant replicon.
Source text: as §1

Assay [8] has as its system HCV GT1a S282T. Description: HCV GT1a S282T chimeric mutant replicon.
Source text: as §1

Assay [9] deals with HCV GT3a S282T. Description: HCV GT3a S282T chimeric mutant replicon.
Source text: as §1

In assay [10] the test system is HCV GT5a NS5B in con1 background. The assay is described as follows: HCV GT5a chimeric replicon. Particulars: Hepatitis C virus.
Source text: as §1

Assay [11] deals with HCV GT1a NS5B in con1 background. The assay is described as follows: HCV GT1a chimeric replicon. Particulars: Hepatitis C virus.
Source text: as §1

For assay [12], the system named is HCV GT4a S282T. The assay is described as follows: HCV GT4a S282T chimeric mutant replicon.
Source text: as §1

In assay [13] the test system is genotypes 1-6 of HCV, wild type. Description: Wild type HCV genotype panel, average.
Source text: as §1

The subject of assay [14] is HCV mutant strains. The assay is described as follows: Mutant HCV panel, average.
Source text: as §1

Consider `CC(C)OC(=O)[C@H](C)OP(=O)(OC[C@H]1O[C@@H](n2ccc(=O)[nH]c2=O)[C@](C)(Cl)[C@@H]1O)Oc1ccccc1` (some centres unmarked) [Cpd. 40ii of WO2014/058801], for which the EC50 in assay [1] came to 93 nM; in assay [2], 139 nM; in assay [3], 91 nM; in [4], 26 nM; in [5] it was 170 nM; in assay [6], 149 nM. Also, the EC50 was 344 nM in [7] (Hepatitis C virus, geometric mean); 554 nM in assay [8] (Hepatitis C virus, GT1A); 366 nM in [9] (Hepatitis C virus, GT3A); 105 nM in [10]; 140 nM in [11]; 1720 nM in assay [12] (Hepatitis C virus, GT4A). Further, the EC50 was 114 nM in assay [13] (Hepatitis C virus, wild type assays, arithmetic mean +/− SEM) and 746 nM in [14] (Hepatitis C virus, read-out: AVG EC50). Further, the “FC vs WT” value was 3.7 in assay [7] (fold change of EC50); 4.0 in assay [8] (HCV GT1a S282T, fold change of EC50); 2.6 in assay [9] (HCV GT3a S282T, fold change of EC50); 12 in assay [12] (HCV GT4a S282T, fold change of EC50). In addition, the “potency increase vs cpd. 40ii of WO2014/058801” value was determined as 1.0 in assay [13] (wild type, from AVG EC50) and 1.0 in assay [14] ({}).

The values are drawn from US20160271160A1, “HCV POLYMERASE INHIBITORS” (MEDIVIR AB, priority 2013, published 2016).
